Consider 24 molecules from patent publication US11021478B2, “Indolizine derivatives and their application in medicine” (Kind Pharmaceutical, priority 2017, dated 2021).

One assay has as its system hemoglobin in mice. The assay is described as follows: Effect of compounds of Examples on hemoglobin in mice. It counts as in vivo. The conditions noted are these: male C57B1/6 mice, 3 times each week for 2 weeks, 6 hours after last administration minus before first administration. On the procedure: Male C57B1/6 mice of 8-10 weeks (Shanghai Slack Laboratory Animals Co., Ltd.) were administrated orally the test compounds in 30 mg/kg for 2 weeks, 3 times each week and Roxadustat (CAS: 808118-40-3) was administrated in an amount of 60 mg/kg as a positive control. Before the first administration and 6 hours after the last administration, about 30 μl of blood was taken from the mandibular vein, and the hemoglobin content was measured by Hemocue hemoglobin analyzer. The hemoglobin elevation was calculated as the value obtained by subtracting the first hemoglobin content from the hemoglobin content after the last administration.
In addition, hemoglobin elevation was also tested in the same manner for Roxadustat as a positive control. Roxadustat was purchased from Selleckchem, which was known to be a potent inhibitor of HIF prolyl hydroxylase in the art and be able to increase hemoglobin production.

The target of assay [1] is HIF prolyl hydroxylase-2 (HIF-PHD2) (Homo sapiens (Human), UniProt Q9GZT9). The assay is described as follows: Effect of compounds on activities of HIF prolyl hydroxylase-2 (hydroxylation of immobilized HIF-1α556-574 peptide, Eu-VBC binding, OD 450 nm). It counts as biochemical. Conditions: HIF-PHD2, biotinyl-HIF-1α556-574 substrate; representative, relative values.

Where only a bound is given, the exact number is not on record here.

HIF prolyl hydroxylase-2 (HIF-PHD2), sequence (Q9GZT9 whole entry, species assumed): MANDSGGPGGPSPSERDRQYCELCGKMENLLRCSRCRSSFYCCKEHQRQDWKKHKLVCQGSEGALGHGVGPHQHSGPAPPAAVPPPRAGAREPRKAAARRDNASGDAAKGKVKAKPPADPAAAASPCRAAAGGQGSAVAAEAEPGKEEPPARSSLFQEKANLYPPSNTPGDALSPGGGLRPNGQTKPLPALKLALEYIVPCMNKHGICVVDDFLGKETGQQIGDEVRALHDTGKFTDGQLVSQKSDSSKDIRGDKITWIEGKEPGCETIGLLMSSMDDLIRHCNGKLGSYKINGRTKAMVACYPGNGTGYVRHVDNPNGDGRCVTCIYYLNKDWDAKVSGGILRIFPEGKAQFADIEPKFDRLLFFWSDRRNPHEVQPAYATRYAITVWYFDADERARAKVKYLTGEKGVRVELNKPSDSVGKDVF

Regarding `C[C@H](NC(=O)C1=C(O)C2(CC2)n2cccc2C1=O)C(=O)O` [Example 2, (6′-Hydroxy-8′-oxo-8′H-spiro[cyclopropane-1,5′-indolizine]-7′-carbonyl)-L-alanine], the Hemoglobin elevation with hemoglobin in mice (oral 30 mg/kg) was 0.6 g/dL.
For `CCOC(=O)[C@H](C)NC(=O)C1=C(O)C2(CCCC2)n2cccc2C1=O` [Example 21, (6′-Hydroxy-8′-oxo-8′H-spiro[cyclopentane-1,5′-indolizine]-7′-carbonyl)-L-alanine ethyl ester], the Hemoglobin elevation in the assay on hemoglobin in mice (oral 30 mg/kg) is recorded as 1.8 g/dL. Also, the IC50 (commonly the midpoint of a concentration-inhibition curve) in assay [1] was over 10 µM.
In the assay with hemoglobin in mice (oral 30 mg/kg), `O=C(O)CNC(=O)C1=C(O)C2(CCCCCC2)n2cccc2C1=O` [Example 67, (6′-Hydroxy-8′-oxo-8′H-spiro[cycloheptane-1,5′-indolizine]-7′-carbonyl)glycine] yielded a Hemoglobin elevation of 0.8 g/dL.
The same measure, in the same setting: with `CC1(C)C(O)=C(C(=O)NCC(=O)O)C(=O)c2cccn21` [Example 4, (6-Hydroxy-5,5-dimethyl-8-oxo-5,8-dihydroindolizin-7-carbonyl) glycine] the figure was 0.8 g/dL.
Still for that read-out and setting: with `O=C(O)CNC(=O)C1=C(O)C2(CCCCC2)n2cccc2C1=O` [Example 13, (6′-Hydroxy-8′-oxo-8′H-spiro[cyclohexane-1,5′-indolizine]-7′-carbonyl)glycine] the figure was 4.3 g/dL.
The same measure, in the same setting: the result for `O=C(O)CNC(=O)C1=C(O)C2(CCCCC2)n2c(ccc2-c2ccccc2)C1=O` [Example 35, (6′-Hydroxy-8′-oxo-3′-phenyl-8′H-spiro[cyclohexane-1,5′-indolizine]-7′-carbonyl)glycine] reads 2.5 g/dL; that for `C[C@H]1CC[C@@]2(CC1)C(O)=C(C(=O)NCC(=O)O)C(=O)c1cccn12` [Example 69, ((1,4-cis)-6′-hydroxy-4-methyl-8′-oxo-8′H-spiro[cyclohexane-1,5′-indolizine]-7′-carbonyl)glycine], 0.7 g/dL; that for `O=C(O)CNC(=O)C1=C(O)C2(CCC2)n2c(ccc2-c2ccccc2)C1=O` [Example 39, (6′-Hydroxy-8′-oxo-3′-phenyl-8′H-spiro[cyclobutane-1,5′-indolizine]-7′-carbonyl)glycine], 4.8 g/dL.
Turning to `O=C(O)CNC(=O)C1=C(O)C2(CCCC2)n2cccc2C1=O` [Example 8, (6′-Hydroxy-8′-oxo-8′H-spiro[cyclopentane-1,5′-indolizine]-7′-carbonyl)glycine], the Hemoglobin elevation in the assay on hemoglobin in mice (oral 30 mg/kg) worked out at 3.1 g/dL.
With `COC(=O)CNC(=O)C1=C(O)C2(CCCC2)n2cccc2C1=O` [Example 9, (6′-Hydroxy-8′-oxo-8′H-spiro[cyclopentane-1,5′-indolizine]-7′-carbonyl)glycine methyl ester], the Hemoglobin elevation in the assay with hemoglobin in mice (oral 30 mg/kg) was found to be 2.0 g/dL. The molecule also came in with an IC50 in assay [1] of over 10 µM.
For the molecule `C[C@H](NC(=O)C1=C(O)C2(CCCC2)n2cccc2C1=O)C(=O)O` [Example 11, (6′-Hydroxy-8′-oxo-8′H-spiro[cyclopentane-1,5′-indolizine]-7′-carbonyl)-L-alanine], the Hemoglobin elevation in the assay with hemoglobin in mice (oral 30 mg/kg) is on record as 2.0 g/dL.
Same read-out and setting: the result for `C[C@H](NC(=O)C1=C(O)C2(CCCCC2)n2cccc2C1=O)C(=O)O` [Example 14, (6′-Hydroxy-8′-oxo-8′H-spiro[cyclohexane-1,5′-indolizine]-7′-carbonyl)-L-alanine] reads 1.0 g/dL; that for `O=C(O)CNC(=O)C1=C(O)C2(CCCC2)n2c(ccc2-c2ccccc2)C1=O` [Example 24, (6′-Hydroxy-8′-oxo-3′-phenyl-8′H-spiro[cyclopentane-1,5′-indolizine]-7′-carbonyl)glycine], 4.0 g/dL.
For `CC(C)(C)C(=O)OCOC(=O)CNC(=O)C1=C(O)C2(CCCCC2)n2cccc2C1=O` [Example 22, (((6′-hydroxy-8′-oxo-8′H-spiro[cyclohexane-1,5′-indolizine]-7′-carbonyl)glycyloxy)methyl) pivalate], the half-maximal inhibitory concentration (IC50) in assay [1] was over 10 µM.
In the assay with hemoglobin in mice (positive control, 60 mg/kg), `Cc1nc(C(=O)NCC(=O)O)c(O)c2ccc(Oc3ccccc3)cc12` [Roxadustat, reference compound] gave a Hemoglobin elevation of 1.7 g/dL.
Consider `O=C(O)CNC(=O)C1=C(O)C2(CCC2)n2cccc2C1=O` [Example 6, (6′-Hydroxy-8′-oxo-8′H-spiro[cyclobutane-1,5′-indolizine]-7′-carbonyl)glycine], for which the Hemoglobin elevation in the assay on hemoglobin in mice (oral 30 mg/kg) is given as 0.9 g/dL.
Molecule `CCOC(=O)CNC(=O)C1=C(O)C2(CCCC2)n2cccc2C1=O` [Example 10, (6′-Hydroxy-8′-oxo-8′H-spiro[cyclopentane-1,5′-indolizine]-7′-carbonyl)glycine ethyl ester] displayed a Hemoglobin elevation in the assay on hemoglobin in mice (oral 30 mg/kg) of 1.9 g/dL. Further, in assay [1], the IC50 was over 10 µM.
Consider `O=C(O)CNC(=O)C1=C(O)C2(CC2)n2cccc2C1=O` [Example 1, (6′-Hydroxy-8′-oxo-8′H-spiro[cyclopropane-1,5′-indolizine]-7′-carbonyl) glycine], for which the Hemoglobin elevation in the assay with hemoglobin in mice (oral 30 mg/kg) worked out at 1.0 g/dL.
Regarding `O=C(O)CNC(=O)C1=C(O)C2(CCCC2)n2ccc(C3CC3)c2C1=O` [Example 62, (1′-cyclopropyl-6′-hydroxy-8′-oxo-8′H-spiro[cyclopentane-1,5′-indolizine]-7′-carbonyl)glycine], the Hemoglobin elevation with hemoglobin in mice (oral 30 mg/kg) came out at 0.1 g/dL.
In the assay on hemoglobin in mice (oral 30 mg/kg), `C[C@@H](NC(=O)C1=C(O)C2(CCCC2)n2cccc2C1=O)C(=O)O` [Example 12, (6′-Hydroxy-8′-oxo-8′H-spiro[cyclopentane-1,5′-indolizine]-7′-carbonyl)-D-alanine] registered a Hemoglobin elevation of 0.8 g/dL.
On the same count and under the same terms, with `C[C@H](NC(=O)C1=C(O)C2(CCC2)n2cccc2C1=O)C(=O)O` [Example 7, (6′-Hydroxy-8′-oxo-8′H-spiro[cyclobutane-1,5′-indolizine]-7′-carbonyl)-L-alanine] the figure was 0.7 g/dL; with `C[C@H]1CC[C@]2(CC1)C(O)=C(C(=O)NCC(=O)O)C(=O)c1cccn12` [Example 68, ((1,4-trans)-6′-hydroxy-4-methyl-8′-oxo-8′H-spiro[cyclohexane-1,5′-indolizine]-7′-carbonyl)glycine], 5.2 g/dL.
The same measure, in the same setting: with `C[C@H](NC(=O)C1=C(O)C(C)(C)n2cccc2C1=O)C(=O)O` [Example 5, (6-Hydroxy-5,5-dimethyl-8-oxo-5,8-dihydroindolizin-7-carbonyl)-L-alanine] the figure was 1.0 g/dL.
For the molecule `CCOC(=O)CNC(=O)C1=C(O)C2(CCCCC2)n2cccc2C1=O` [Example 46, (6′-Hydroxy-8′-oxo-8′H-spiro[cyclohexane-1,5′-indolizine]-7′-carbonyl)glycine ethyl ester], in assay [1], the IC50 is over 10 µM.
